Values joined by “and” are separate entries in the source; they are usually repeats but may differ in a detail not shown here. Equal values may be shown once. “Also recorded” adds a separate entry of the source.
Tests used:
A549 cell spheroids = experiment: 3D tumor spheroid assay; format: cell-based, human; conditions: 12 days; for influence on spheroid tumor growth: 5 μM
Procedure: A 3D spheroid model was employed to investigate the effect of longer term MD13 treatment in a more complex model for tumor growth. The 3D spheroid model was established using A549 cancer cells by a method adapted from Feng et al.[48] The spheroids were grown over a 12‐day period in absence or presence of PROTAC MD13. Each spheroid was prepared from about 1000 A549 cells. After three‐day incubation, these spheroids were treated with 1, 2, or 5 μM of MD13 with 72 hours intervals over 12 days. Spheroid growth was monitored by measuring the diameter and this was compared to day 0 of the treatment. The tumor spheroids in MD13 treated groups were significant smaller compared to the control group (Figure 5 B and Figure S9). With continuous exposure to 1, 2, or 5 μM of MD13 for 12 days, the growth of the spheroid tumor volume was inhibited by 42 %, 53 %, and 81 % compared with control group, respectively. […]
Tumor spheroid assay. A549 cells (1000 cells/well) were seeded onto a 96-well round-bottomed ultra low attachment plate (Corning). After 2 days of incubation without disturbance, the spheroid was treated with indicated compound every 3 days. […]
(1 picture or pasted object on this page, not shown here) […]
inverted microscope (Nikon Eclipse Ti) connected with a NIS-elements software. The data were analyzed and plotted with Graphpad Prism8. […]
cells were seeded in an ultralow attachment 96-well round-bottomed plate (1000 cells/well) to generate tumor spheroids (a single spheroid per well). After initiation, the spheroids were treated with different compounds at the indicated concentrations every three days. DMSO was used as vehicle control. The day of the first treatment was indicated as day 0. (A) Representative images were obtained at the indicated intervals using an inverted microscope. Scale bar: 500 μm. (B) Analysis was carried out using NIS-Elements AR 3.1 software, and growth curves were obtained relative to the untreated spheroids (day 0) and plotted with GraphPad Prism 8. Values are shown as means ± SD (n = 3 spheroids/time point, **p < 0.01 vs control). […]

MIF = molecular target: T1, MIF (Homo sapiens, UniProt P14174); experiment: MIF degradation in A549 cells, western-blot; format: cell-based; design: endogenous in cells; host or cells: A549 (ATCC CCL-185)
T1 sequence (P14174 2-115 limits assumed): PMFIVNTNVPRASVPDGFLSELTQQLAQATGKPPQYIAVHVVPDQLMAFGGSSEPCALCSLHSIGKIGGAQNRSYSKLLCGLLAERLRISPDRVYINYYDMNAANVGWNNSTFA
Procedure: The concentration dependence of PROTAC MD13‐mediated induction of MIF degradation in A549 cells was investigated using western‐blot. […] The MIF levels were normalized to the vehicle treated control and plotted to the respective MD13 concentrations. This provided a DC50 of around 100 nM and a maximal degradation of around 90–95 % at concentrations higher than 1 μM (Figure 3 B). The DC50 of MD13 measured by ELISA assay was about 200 nM (Figure 3 C), which is in line with the result from western‐blot. […]
Cell lysates were prepared using the protocol described above. About 10−40 μg of total protein was mixed with the 4× Laemmli Loading Dye (250 mM Tris, pH 6.8, 40% glycerol, 5% SDS, 0.005% bromophenol blue, 4% β-mercaptoethanol) and heated at 95−100 °C for 5 min and loaded onto a 12% Bis-Tris gel (Bio-Rad Laboratories, #4561084) and proteins were separated at 120V. Afterwards, proteins were transferred to polyvinylidene fluoride (PVDF) membranes, subsequently non-specific antibody binding was blocked with 5% nonfat dry milk (BIO-RAD, #1706404) in TBST buffer and incubated overnight at 4 °C with one of the following primary antibodies: anti-MIF (1:1000, ThermoFisher, #PA5-27343 ) or anti-β-actin (1:10000 Cell Signalling, #8457). The membranes were further incubated with a goat anti-rabbit HRP-conjugated secondary antibody (1:2000, DAKO, p0448) for 2 h at room temperature. Proteins were visualized with an ECLTM Prime Western Blotting System (GE Healthcare #RPN2232). The immunoblot was generated by ChemiDoc MP Imaging Systems (Bio-Rad) and analyzed by the ImageJ software. […]
As a control, the same experiment was repeated and analyzed by a western-blot assay (Figure 3B). The potency estimated from the Western blot assay was 1 µM (Figure 3C), which is consistent with the result from the ELISA assay. The “Hook effect” […]

A549 cells = experiment: CyQUANT cell proliferation assay; format: cell-based, human; conditions: 72 hours; for effect on cell proliferation: concentrations up to 20 μM
Procedure: S8. Cell growth, cell cycle and pERK signaling study
Cell proliferation was measured with the CyQUANT® Direct Cell Proliferation Assay Kit (Thermo Fisher, #C35011). A549 cells were cultured in 96-well plates at a density of 1,000 cells/well and treated with different concentrations of MIF PROTAC (0.02-20 μM) for 72 h.
Cells were incubated with detection reagent (100 μL) for 60 min at 37 °C with 5% CO2. The fluorescence of each well was read at 485/535nm by plate reader (BioTek).
Figure S8. Cells were seeded with a density of 1000 cells per well in a 96-well plate. After overnight incubation, the cells were treated with various concentration of MD13 for 72 hours.
The resulting cells were quantified by CyQUANT® cell proliferation assays and compared with the vehicle (DMSO) control (n=3). […]
(also on this page, place not known: (0.02 -20 CO 2. (20 µM) 4 (20 µM) µM 20 µM 0.01 µM 0.08 µM 0.74 µM 6.7 µM 20 µM 0 50 100 Cell (%) H441 n.s. * * ** *** * n.s. MD15 96 -well MD13 proliferation control 96 -well round - 2 3) […]
(1 picture or pasted object on this page, not shown here)

## O=C1CCC(N2C(=O)c3cccc(NCCCCCCCC(=O)Nc4ccc(N5Cc6ccc(O)cc6OC5=O)cc4)c3C2=O)C(=O)N1 (stereo not drawn) [MD13]
A549 cell spheroids; Homo sapiens, A549, 1 μM, treated every three days, read-out: inhibition of growth of spheroid tumor volume
  inhibition at 1 µM: 42%
A549 cell spheroids; Homo sapiens, A549, 2 μM, treated every three days, read-out: inhibition of growth of spheroid tumor volume
  inhibition at 2 µM: 53%
A549 cell spheroids; Homo sapiens, A549, 5 μM, treated every three days, read-out: inhibition of growth of spheroid tumor volume
  inhibition at 5 µM: 81%
MIF; A549, A549 cells, 12 h, western-blot, concentrations higher than 1 μM, read-out: maximal degradation (Dmax)
  Dmax: 90 to 95%
MIF; A549 cells, 3 hours
  reduction of MIF protein levels within 3 hours: about 80%
MIF; A549 cells, 12 h, western-blot, concentrations higher than 1 μM
  maximal degradation (Dmax): > 90%
MIF; A549 cells, 12 h, western-blot, read-out: DC50
  DC50: ~100 nM and < 100 nM
MIF; A549 cells, 48 h
  recovery of the MIF levels after 48 h: slight recovery
MIF; A549 cells, time course, 6 h
  MIF degradation after 6 h: > 92%
MIF; A549 cells, MD9 at 10 μM
  time of treatment after which MIF degradation becomes visible: 3 h
A549 cells; Homo sapiens, 20 μM, 2D culture
  inhibition at 20 µM: ~50%

## CN1C(=O)CCC(N2C(=O)c3cccc(NCCCCCCCC(=O)Nc4ccc(N5Cc6ccc(O)cc6OC5=O)cc4)c3C2=O)C1=O (stereo not drawn) [MD15]
A549 cell spheroids
  influence on spheroid tumor growth: no significant influence
MIF; A549 cells, 12 hours, inactive control experiment
  effect on MIF level relative to control: not able to reduce the MIF levels; also recorded: no effect on MIF protein level
A549 cells
  effect on cell proliferation: almost no inhibition; also recorded: no or little effect

## COc1ccc(N2Cc3ccc(O)cc3OC2=O)cc1OC [compound 3]
A549 cell spheroids
  influence on spheroid tumor growth: no significant influence
MIF; A549 cells, 2 hours pretreatment (1 100 µM, 3 50 µM, 4 50 µM, Bortezomib), then 10 µM MD9 12 h
  rescue of MD9 mediated MIF degradation: partial to complete rescue; also recorded: rescued
MIF; A549 cells, co-treatment (Bortezomib) or 1 hour pretreatment (3, 4) with MD13
  rescue of MD13 mediated MIF degradation: rescued MIF from degradation; also recorded: able to abolish the MD13 triggered degradation
A549 cells
  effect on cell proliferation: no effect; also recorded: no or little effect

— publication PMC8362126, “Proteolysis Targeting Chimera (PROTAC) for Macrophage Migration Inhibitory Factor (MIF) Has Anti‐Proliferative Activity in Lung Cancer Cells” (Angewandte Chemie (International Ed. in English), 2021)
